According to patent US5232917A, “Methods, compositions, and compounds for allosteric modulation of the GABA receptor by members of the androstane and pregnane series” (priority 1991, dated 1993):
pIC50: −log10 of the molar value. Where two headings read alike, the source gives them in different places.

Key:
[1] = test system: metrazol-induced seizures; assay: Time course of antimetrazol activity of prodrugs; type: in vivo, mice (CF1); details: 60 mg/kg ip; for responders at 60 mg/kg: Mus musculus
[2] = biological target: GABA receptor-chloride ionophore complex (GR complex); assay: [35S]TBPS binding modulation assay; details: for Max. Inhib., maximal % of specifically bound [35S]-TBPS displaced: saturating concentrations of test compound
progesterone receptor = biological target: T1, progesterone receptor (Bos taurus, UniProt F1N712); assay: Inhibition of 3H-progesterone binding to bovine uteral progesterone receptors
T1 construct: from tissue; host or cells: bovine uterus cytosol
T1 sequence (F1N712 1-914): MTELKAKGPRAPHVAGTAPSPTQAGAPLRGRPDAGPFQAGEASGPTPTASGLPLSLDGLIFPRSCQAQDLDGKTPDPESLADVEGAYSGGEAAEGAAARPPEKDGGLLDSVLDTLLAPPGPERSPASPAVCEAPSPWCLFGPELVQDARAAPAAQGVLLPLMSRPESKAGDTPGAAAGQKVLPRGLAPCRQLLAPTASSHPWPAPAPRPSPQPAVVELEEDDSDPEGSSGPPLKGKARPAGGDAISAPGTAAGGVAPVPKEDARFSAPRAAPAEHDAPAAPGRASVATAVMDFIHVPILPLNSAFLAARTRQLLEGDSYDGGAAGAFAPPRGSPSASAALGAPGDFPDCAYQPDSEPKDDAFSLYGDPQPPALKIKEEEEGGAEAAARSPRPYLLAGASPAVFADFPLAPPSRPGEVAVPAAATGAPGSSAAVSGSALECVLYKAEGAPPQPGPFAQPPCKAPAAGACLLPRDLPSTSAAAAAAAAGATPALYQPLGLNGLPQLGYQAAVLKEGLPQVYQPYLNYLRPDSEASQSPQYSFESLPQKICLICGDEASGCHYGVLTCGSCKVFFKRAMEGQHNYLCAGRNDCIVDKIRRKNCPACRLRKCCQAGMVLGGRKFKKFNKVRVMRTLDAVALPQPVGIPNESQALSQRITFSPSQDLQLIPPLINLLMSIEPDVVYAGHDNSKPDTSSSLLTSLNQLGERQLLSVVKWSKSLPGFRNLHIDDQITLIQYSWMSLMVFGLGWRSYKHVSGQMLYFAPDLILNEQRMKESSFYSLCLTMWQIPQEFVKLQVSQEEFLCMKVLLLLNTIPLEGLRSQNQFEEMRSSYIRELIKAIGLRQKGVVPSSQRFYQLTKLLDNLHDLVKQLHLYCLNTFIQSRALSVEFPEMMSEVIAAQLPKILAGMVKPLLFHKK
Experimental: The hormonal activity of drugs described herein was further studied through testing their potential estrogenic, progestinic, mineralocorticoid and glucocorticoid activities. These activities were analyzed by monitoring the ability of the drugs to inhibit binding of the steroid hormones to their respective hormone receptors.
For the data presented in Table 9, bovine uteri cytosol was isolated as they were for Table 7 and used for following binding to progesterone receptors by following the inhibition of ^3 H-progesterone, the natural ligand.

[3] = 1 hr, read-out: Antimetrazol activity, % of animals protected, 1 hr
[4] = 4 hr, read-out: Antimetrazol activity, % of animals protected, 4 hr
[5] = read-out: IC50, inhibition of [35S]-TBPS binding, +5 μM GABA, in the presence of 5 μM GABA
[6] = read-out: % of inhibition of 3H-progesterone binding, A, competitor 10^-5 M, 0.15 nM 3H-progesterone
[7] = read-out: % of inhibition of 3H-progesterone binding, A, competitor 10^-6 M, 0.15 nM 3H-progesterone
[8] = read-out: % of inhibition of 3H-progesterone binding, B, competitor 10^-5 M, 0.25 nM 3H-progesterone
[9] = read-out: % of inhibition of 3H-progesterone binding, B, competitor 10^-6 M, 0.25 nM 3H-progesterone
[10] = washed synaptoneurosomes, no GABA added
[11] = read-out: IC50, inhibition of [35S]-TBPS binding, No GABA, washed synaptoneurosomes, no GABA added

Compound	responders at 60 mg/kg [1, 3] [%]	pIC50 [2, 5]	Max. Inhib., maximal % of specifically bound [35S]-TBPS displaced [2] [%]	further results
CCC(=O)O[C@@H]1CC[C@@]2(C)[C@@H](CC[C@@H]3[C@@H]2CC[C@]2(C)[C@@H](C(C)=O)CC[C@@H]32)C1	75			responders at 60 mg/kg [1, 4]: 0%
CCCC(=O)O[C@@H]1CC[C@@]2(C)[C@@H](CC[C@@H]3[C@@H]2CC[C@]2(C)[C@@H](C(C)=O)CC[C@@H]32)C1	75			responders at 60 mg/kg [1, 4]: 13%
CCCCC(=O)O[C@@H]1CC[C@@]2(C)[C@@H](CC[C@@H]3[C@@H]2CC[C@]2(C)[C@@H](C(C)=O)CC[C@@H]32)C1	33			Antimetrazol activity, % of animals protected, 20 hr [1]: 33%; responders at 60 mg/kg [1, 4]: 33%
CC(=O)[C@H]1CC[C@H]2[C@@H]3CC[C@H]4C[C@H](OC(=O)C(C)C)CC[C@]4(C)[C@H]3CC[C@]12C	75			responders at 60 mg/kg [1, 4]: 29%
CC(=O)[C@H]1CC[C@H]2[C@@H]3CC[C@H]4C[C@H](OC(=O)C5CCC5)CC[C@]4(C)[C@H]3CC[C@]12C	17			Antimetrazol activity, % of animals protected, 20 hr [1]: 17%
CC(=O)[C@H]1CC[C@H]2[C@@H]3CC[C@H]4C[C@H](OC(=O)c5ccccc5)CC[C@]4(C)[C@H]3CC[C@]12C	33			
CC(=O)[C@H]1CC[C@H]2[C@@H]3CC[C@H]4C[C@H](OC(=O)c5ccc(Cl)cc5)CC[C@]4(C)[C@H]3CC[C@]12C	50			responders at 60 mg/kg [1, 4]: < 16%
COc1ccc(C(=O)O[C@@H]2CC[C@@]3(C)[C@@H](CC[C@@H]4[C@@H]3CC[C@]3(C)[C@@H](C(C)=O)CC[C@@H]43)C2)cc1	17			responders at 60 mg/kg [1, 4]: 17%
CC(=O)[C@H]1CC[C@H]2[C@@H]3CC[C@H]4C[C@H](OC(=O)c5cccnc5)CC[C@]4(C)[C@H]3CC[C@]12C				Antimetrazol activity, % of animals protected, 20 hr [1]: 50%
CC(=O)[C@H]1CC[C@H]2[C@@H]3CC[C@H]4C[C@H](OC(=O)C5=CN(C)C=CC5)CC[C@]4(C)[C@H]3CC[C@]12C	0			Antimetrazol activity, % of animals protected, 20 hr [1]: 63%; responders at 60 mg/kg [1, 4]: 0%
CC(=O)[C@H]1CC[C@H]2[C@@H]3CC[C@H]4C[C@@H]5O[C@@H]5C[C@]4(C)[C@H]3CC[C@]12C [2,3-EPOXY-5α-PREGNAN-20-ONE, 2α,3α-Epoxy-5α-pregnan-20-one, reference compound]		4.00		
CC(C)(O)[C@H]1CC[C@H]2[C@@H]3CC[C@H]4C[C@](C)(O)CC[C@]4(C)[C@H]3CC[C@]12C [3α,20-dihydroxy-3β,20-dimethyl-5α-pregnane]			50	inhibition at 10 µM (progesterone receptor; [6]): 5%; inhibition at 1 µM (progesterone receptor; [7]): 8%; inhibition at 10 µM (progesterone receptor; [8]): 0%; inhibition at 1 µM (progesterone receptor; [9]): 0%
C[C@]12CC[C@@H](O)C[C@@H]1CC[C@@H]1[C@@H]2CC[C@]2(C)[C@@H](C(=O)O)CC[C@@H]12 [3α-HYDROXY-5α-ANDROSTAN-17β-CARBOXYLATE, 3α-Hydroxy-5α-androstane-17β-carboxylic acid]		5.57	63	
C/C=C1/CC[C@H]2[C@@H]3CC[C@H]4C[C@H](O)CC[C@]4(C)[C@H]3CC[C@]12C [3α-HYDROXY-5α-CIS-PREGN-17(20)-ENE, 3α-hydroxy-(5α)-cis-pregn-17(20)-ene]		7.17	100	
CC(=O)C1=CC[C@H]2[C@@H]3CC[C@H]4C[C@H](O)CC[C@]4(C)[C@H]3CC[C@]12C [3α-HYDROXY-5α-PREGN-16-EN-20-ONE]		6.79	100	
CO[C@@H]1C[C@H]2[C@@H]3CC[C@H]4C[C@H](O)CC[C@]4(C)[C@H]3CC[C@]2(C)[C@H]1C(C)=O [3α-HYDROXY-5α-PREGNAN-16α-METHOXY-20-ONE]		5.35	73	
CC(=O)C1=CC[C@H]2[C@@H]3CC[C@@H]4C[C@H](O)CC[C@]4(C)[C@H]3CC[C@]12C [3α-HYDROXY-5β-PREGN-16-EN-20-ONE]		6.00	100	
CC(=O)[C@H]1CC[C@H]2[C@@H]3CC[C@H]4C[C@@](C)(O)CC[C@]4(C)[C@H]3CC[C@]12C [3β-HYDROXY-3α-METHYL-5α-PREGNAN-20-ONE, 3β-HYDROXY-3α-METHYL-5α- PREGNAN-20-ONE]		5.13	55	
C[C@]12C[C@H](O)[C@H]3[C@@H](CCC4=CC(=O)CC[C@@]43C)[C@@H]1CC[C@@H]2C(=O)CO [4-PREGNEN-11b,21-DIOL- 3,20-DIONE, reference compound]		< 4.00	21	IC50, inhibition of [35S]-TBPS binding, No GABA [2, 10]: Inactive
CC(=O)[C@H]1CC[C@H]2[C@@H]3CC=C4C[C@@H](O)CC[C@]4(C)[C@H]3CC[C@]12C [5-PREGNEN-3β-OL-20-ONE (PREGNENOLONE), 5-PREGNEN-3β-OL-20-ONE, reference compound]		< 4.00	30	IC50, inhibition of [35S]-TBPS binding, No GABA [2, 10]: Inactive
C[C@]12CC[C@@H](O)C[C@@H]1CC[C@@H]1[C@@H]2CC[C@]2(C)[C@@H](O)CC[C@@H]12 [5α-ANDROSTAN-3α,17β-DIOL, 5α-ANDROSTAN-3α ,17β-DIOL]		6.00	100	pIC50 [2, 11]: 4.82
C[C@]12CCC(=O)C[C@@H]1CC[C@@H]1[C@@H]2CC[C@]2(C)[C@@H](O)CC[C@@H]12 [5α-ANDROSTAN-17β-OL-3-ONE, 5α-ANDROSTAN-17β-OL-3- ONE, reference compound]		4.74	52	pIC50 [2, 11]: < 4.00
C[C@@H](O)[C@H]1CC[C@H]2[C@@H]3CC[C@H]4C[C@H](O)CC[C@]4(C)[C@H]3CC[C@]12C [5α-PREGNAN-3α,20β-DIOL]		6.00	100	
C[C@]12CC[C@@H](O)C[C@@H]1CC[C@H]1[C@@H]3CC[C@H](C(=O)CO)[C@@]3(C)CC(=O)[C@@H]12 [5α-PREGNAN-3α,21-DIOL-11,20-DIONE, 5α-PREGNAN-3α,21-DIOL- 11,20-DIONE]		5.26		pIC50 [2, 11]: < 4.00
C[C@H](O)[C@H]1CC[C@H]2[C@@H]3CC[C@@H]4C[C@H](O)CC[C@]4(C)[C@H]3CC[C@]12C [5β-pregnan-3α,20α-diol]				inhibition at 10 µM (progesterone receptor; [6]): 1%; inhibition at 10 µM (progesterone receptor; [8]): 1%
CC(=O)[C@H]1CC[C@H]2[C@@H]3CC[C@@H]4C[C@H](O)CC[C@]4(C)[C@H]3CC[C@]12C [5β-pregnan-3α,ol-20-one]				inhibition at 10 µM (progesterone receptor; [6]): 17%; inhibition at 1 µM (progesterone receptor; [7]): 9%; inhibition at 10 µM (progesterone receptor; [8]): 13%; inhibition at 1 µM (progesterone receptor; [9]): 1%
C[C@]12CC[C@@H]3c4ccc(O)cc4CC[C@H]3[C@@H]1CC[C@@H]2O [17β-ESTRADIOL, reference compound]			0	IC50, inhibition of [35S]-TBPS binding, +5 μM GABA ([2]; in the presence of 5 μM GABA): Inactive; IC50, inhibition of [35S]-TBPS binding, No GABA [2, 10]: Inactive
C[C@]12CC[C@@H](O)C[C@@H]1CC[C@@H]1[C@@H]2CC[C@]2(C)[C@@H](C(=O)CCl)CC[C@@H]12 [21-CHLORO-5α-PREGNAN-3α-OL-20-ONE]		7.10	100	
CC(C)CCC[C@@H](C)[C@H]1CC[C@H]2[C@@H]3CC=C4C[C@@H](O)CC[C@]4(C)[C@H]3CC[C@]12C [CHOLESTEROL, reference compound]			0	IC50, inhibition of [35S]-TBPS binding, +5 μM GABA ([2]; in the presence of 5 μM GABA): Inactive; potency/activity at the GR complex ([2]; modulation of [35S]TBPS binding): essentially inactive; IC50, inhibition of [35S]-TBPS binding, No GABA [2, 10]: Inactive
CC(=O)[C@H]1CC[C@H]2[C@@H]3CC[C@H]4C[C@H](O)CC[C@]4(C)[C@H]3C(=O)C[C@]12C [alphaxalone, 5α-PREGNAN-3α-OL-11,20-DIONE, reference compound]		6.58		pIC50 [2, 11]: 4.96
